# Results as given in US9937227B2, “Humanin, analogs and cancer treatment methods and uses thereof” (LOS ANGELES BIOMEDICAL RESEARCH INSTITUTE AT HARBOR-UCLA …, priority 2014, dated 2018).
# Read-outs that look alike come from different tables or passages of the source.
# Assays:
# B16 melanoma cells = assay type: cell-based
# Description: Furthermore, the autophagy induction of humanin may be related to its apparent effects of enhancing longevity observed in other systems.
# male germ cells [1] = assay type: in vivo, mouse; settings: middle stages
# Description: Onco-infertility is a major concern of cancer survivors. In this study, it was investigated whether HNG will prevent chemotherapy (Temozolomide, TMZ, an alkylating agent used clinically to treat brain tumors) induced male germ cell apoptosis in SCID mice bearing subcutaneous implants of human medulloblastoma. DAOY human pediatric medulloblastoma cells (1.0×10^8 cells/animal) were injected subcutaneously into the right flank of 7-week old male SCID mice. After 3 weeks to allow tumor growth, each group of mice (n=4 to 5/group) received one of the following treatments: 1) vehicle (control); 2) HNG intra-peritoneal (IP) injection (HNG, 5 mg/Kg BW/day, 3 days pretreatment +5 days treatment); 3) TMZ IP injection (TMZ, 50 mg/Kg BW/day×5 days); 4) TMZ and HNG IP injections (TMZ+HNG). Mice were sacrificed 24 hours after the last injection, subcutaneous tumors were dissected and weighed (FIG. 26) and male germ cell apoptosis was assessed by TUNEL staining and quantified (Apoptosis Index, AI, number of apoptotic germ cell/Sertoli cell, FIG. 27). […] HNG ameliorated TMZ-induced germ cell apoptosis without affecting the chemotherapeutic effect on transplanted medulloblastoma tumor in an immunocompromised mouse model.
# [2] = Table 1; cited from earlier work
# Leydig cells [3] = test: Testosterone of cultured Leydig cells treated with ketoconazole; assay type: cell-based, rat; settings: KTZ 10 mcg/ml, 4 hours
# Description: Leydig cells were isolated based on a previously described procedure (Gao, et al., 1996; Klinefelter, et al., 1987; Salva, et al., 2001). Briefly, the testes were decapsulated, and then dissociated with collagenase, dispase, DNase and shaking for 15 min at 34° C. The seminiferous tubules were removed by filtration through 40 μm nylon mesh (BD Falcon, Franklin Lakes, N.J.). Leydig cells were then harvested after centrifugation and purified using a Percoll gradient (GE Healthcare, Uppsala, Sweden) and centrifugation (60 minutes at 20,000 g at 4° C.). Enriched Leydig cells were harvested at densities between 1.065 (red) and 1.075 (blue) g/cm^3 from the percoll gradient. These Leydig cells were washed by diluting the percoll and excluding residual germ cells and other cells using a BSA density gradient with centrifugation. The purity of the Leydig cells was >90%, as determined by histochemical staining for 3β-hydroxysteroid dehydrogenase. The cell viability, as assessed by trypan blue exclusion, was greater than 90%. […]
# Testosterone concentrations in plasma, testes, and culture medium were measured by a previously described radioimmunoassay (Lue, et al., 2010) with a minimal detection limit of 0.1 ng/ml. […]
# Leydig cells [4] = test: Histology of rat testes: Leydig cells; settings: EDS for three days
# male germ cells [5] = test system: male germ cells
# testosterone = settings: with or without EDS pre-treatment
molecule,measurement,setting,value
Cn1cnc(=N)c2[nH]cnc21 [3-MA],"additive effect of humanin in doxorubicin treated B16 cells, with autophagy inhibitor",B16 melanoma cells,diminished
"Cn1nnc2c(C(N)=O)ncn2c1=O [TMZ, Temozolomide]","Apoptosis Index (AI, apoptotic germ cell/Sertoli cell)",male germ cells [1],0.058±0.006
"MAPRGFSALLLLTSEIDLPVKRRA [HN-C8A, HN mutant, Cys8 to Ala]",Cytoprotective Action,[2],"Not effective, prevents"
MAPRGASCLLLLTSEIDLPVKRRA [HN-F6A],Cytoprotective Action,[2],Similar/more effective
"CC(=O)N1CCN(c2ccc(OCC3COC(Cn4ccnc4)(c4ccc(Cl)cc4Cl)O3)cc2)CC1 (centres unmarked) [KTZ, ketoconazole]",testosterone levels compared to control,Leydig cells [3],lowered the testosterone levels significantly
"CS(=O)(=O)OCCOS(C)(=O)=O [EDS, ethane dimethanesulfonate]",Leydig cells in the interstitial spaces compared to control,Leydig cells [4],depletion of Leydig cells
same,germ cell apoptosis compared to control,"male germ cells [5]; early (I-VI) and late (IX-XIV) stages, EDS pre-treated",did not significantly increase
same,germ cell apoptosis compared to control,"male germ cells [5]; middle (VII-VIII) stages, EDS 80 mg/kg pre-treatment",significant acute cytotoxic effects
same,intratesticular testosterone levels,testosterone,decreased to very low levels
same,serum testosterone levels,testosterone,decreased to very low levels
CCN(CC)CCCC(C)Nc1ccnc2cc(Cl)ccc12 (centres unmarked) [chloroquine],"additive effect of humanin in doxorubicin treated B16 cells, with autophagy inhibitor",B16 melanoma cells,diminished
